{"source": "patent US20240299358A1", "about": "“COMPOSITIONS AND METHODS FOR DIAGNOSIS AND TREATMENT OF AUTOIMMUNE DISEASES” (DUKE UNIVERSITY, priority 2021, published 2024)", "system": "eHsp90", "assay": "Flow cytometry uptake of fluor-tethered Hsp90 inhibitors by T cells from human PBMCs", "format": "cell-based", "conditions": "anti-CD3/28 stimulated human PBMCs, following activation (FIG. 3A)", "procedure": "T-cell activation: PBMC aliquots (ZenBio SER-PBMC-F) were washed in RPMI-1640 with 10% FBS and PSG and then rested overnight in a T-75 flask. The suspended cells were then transferred to a fresh flask and activated in fresh RPMI-1640/10% FBS/PSG by 3:20,000 anti-CD3 (BioLegend 317303), 3:20,000 anti-CD28 (BioLegend 302913), and 1:10,000 (30 IU/mL) human IL-2 (CST 8907SC) and incubated for up to 72 hours. In the experiments with longer activation, samples were diluted 1:3 into fresh media containing hIL-2 at 72 hours post initial stimulation with CD3/CD28 antibodies.\nFlow Cytometry: The activated/rested cells were plated into a 96-well round bottom plate and pelleted at low speed. Cells were resuspended in chilled media containing titrated HS-131 or HS-198 (in 1% DMSO) and stained for 30 minutes at RT. Fluorochrome tagged inhibitors and media were washed away with a PBS wash, followed by a PBS wash containing 3% NMS. Surface antibody stains were performed in 3% NMS/PBS for 30 minutes followed by PBS washes (2x). Samples were analyzed on BD FACSCanto II flow cytometer. Permeabilized samples were prepared as previously described followed by fixation in 4% Formaldehyde/PBS overnight at 4° C. Sample analysis was performed with Flowing Software and FlowJo.\nA hallmark of T cell function is to proliferate rapidly in response to antigen presentation along with appropriate cytokine and costimulatory signaling. This leads to the induction of the chaperone machinery which is essential in facilitating this process. In some respects, antigen induced T cell proliferation may be analogous to oncogene driven metastasis. Therefore, to investigate whether proliferating T cells similarly express eHsp90 during T cell activation, their ability to absorb fluor-tethered Hsp90 inhibitors following an anti-CD3/CD28 challenge was examined (see. FIGS. 2A-2E). The structures of two types of fluor-tethered Hsp90 inhibitors (HS-131 and […]) that were used in the present studies are shown in FIG. 2A. […]"}
{"smiles": "Cc1nn(-c2ccc(C(N)=O)c(NCCCOCCOCCOCCOCCOCCCNCc3ccc(C(=C\\C=C4\\N(CCCCS(=O)(=O)[O-])c5ccccc5C4(C)C)/C=C/C4=[N+](CCCCS(=O)(=O)O)c5ccccc5C4(C)C)cc3)c2)c2c1C(=O)CC(C)(C)C2", "note": "[HS-131]", "values": [{"measurement": "eHsp90 expression upregulation as determined by HS-131 binding", "value": "20-25 fold"}]}
